These are literature values, as cited in patent publication US20030113362A1, “Unique ascorbic acid derivatives with essential amino acids, nonessential amino acid and amino acids that do not occur in protein: the process for their preparation and use in research, medicine, physiology, pharmacology, nutrition, pharmaceuticals, and for cosmetic, commercial and industrial …” (priority 2001, published 2003).

For this data set the following is noted: compared with ascorbic acid; test conditions not given.

Take `O=C1O[C@H]([C@@H](O)CO)C(O)=C1OS(=O)(=O)O` [L-ascorbate 2-sulphate]: the “stability, times more stable than ascorbic acid” value is 20 times.
